This is an account of results in US4864023A, “Pyrido(3,2,1-IJ)-1,3,4-benzoxadiazine derivatives” (priority 1988, dated 1989).

In brackets after ≈: the same amount, converted by molar mass.

Holding throughout (assay): in vitro antibacterial activity, standard agar dilution method
Format in all cases: cell-based

In assay [1] the test system is Bordetella bronchiseptica ATCC 4617. Particulars: ATCC4617, aerobic, read-out: minimum inhibitory concentration (MIC).
Assay [2] concerns Bacillus subtilis PCI 219. As to conditions: PCI219, aerobic, read-out: minimum inhibitory concentration (MIC).
Assay [3] relates to Klebsiella pneumoniae FDA PCI 602. Particulars: FDAPCI602, aerobic, read-out: minimum inhibitory concentration (MIC).
Assay [4] concerns Escherichia coli NIHJ JC-2. Particulars: NIHJJC2, aerobic, read-out: minimum inhibitory concentration (MIC).
Assay [5] concerns Enterobacter aerogenes NR 2945. As to conditions: Klebsiella aerogenes, NR2945, aerobic, read-out: minimum inhibitory concentration (MIC).
Assay [6] has as its system Pseudomonas aeruginosa NR 2950. Particulars: NR2950, aerobic, read-out: minimum inhibitory concentration (MIC).
In assay [7] the test system is Staphylococcus epidermidis NR 2942. As to conditions: NR2942, aerobic, read-out: minimum inhibitory concentration (MIC).
Assay [8] concerns Staphylococcus aureus NR 2855. As to conditions: NR2855; Staphylococcus aureus NR 2855; aerobic; agar dilution; read-out: minimum inhibitory concentration (MIC). In general terms: In agar dilution, organisms are placed on agar that contains the substance at set levels.
For assay [9], the system named is Serratia marcescens IFO 12648. As to conditions: IFO12648, aerobic, read-out: minimum inhibitory concentration (MIC).
For assay [10], the system named is Staphylococcus aureus Smith. As to conditions: Staphylococcus aureus Smith; aerobic; agar dilution; read-out: minimum inhibitory concentration (MIC).
In assay [11] the test system is Proteus vulgaris OX19 ATCC 6898. As to conditions: ATCC6898, aerobic, read-out: minimum inhibitory concentration (MIC).
Assay [12] has as its system Enterobacter cloacae NR 2946. As to conditions: NR2946, aerobic, read-out: minimum inhibitory concentration (MIC).
The subject of assay [13] is Pseudomonas aeruginosa A3. As to conditions: aerobic, read-out: minimum inhibitory concentration (MIC).
The subject of assay [14] is Staphylococcus epidermidis IFO 12993. As to conditions: IFO12993, aerobic, read-out: minimum inhibitory concentration (MIC).
For the next assay, the system named is Escherichia coli NR 2630. As to conditions: NR2630; Escherichia coli NR 2630; aerobic; agar dilution; read-out: minimum inhibitory concentration (MIC).
The test system of assay [15] is Alcaligenes faecalis IFO 13111. As to conditions: IFO13111, aerobic, read-out: minimum inhibitory concentration (MIC).
In assay [16] the test system is Proteus rettgeri ATCC 14505. As to conditions: Providencia rettgeri, ATCC14505, aerobic, read-out: minimum inhibitory concentration (MIC).
In assay [17] the test system is Enterococcus faecalis NR 2943. Particulars: NR2943, aerobic, read-out: minimum inhibitory concentration (MIC).
The test system of assay [18] is Salmonella typhimurium IFO 12529. As to conditions: Salmonella enterica, aerobic, read-out: minimum inhibitory concentration (MIC).
Assay [19] has as its system Citrobacter freundii IFO 12681. Particulars: IFO12681, aerobic, read-out: minimum inhibitory concentration (MIC).
For assay [20], the system named is Staphylococcus aureus FDA 209P JC-1. As to conditions: FDA209P; Staphylococcus aureus FDA 209P JC-1; aerobic; agar dilution; read-out: minimum inhibitory concentration (MIC).

In the case of `CN1COc2c(N3CCC(CN)CC3)c(F)cc3c(=O)c(C(=O)O)cn1c23` [Example 12], the MIC in assay [1] worked out at 6.25 µg/mL (≈ 16.6 µM); in assay [2], 0.1 µg/mL (≈ 0.266 µM); in [3], 3.13 µg/mL (≈ 8.32 µM); in assay [4], 0.2 µg/mL (≈ 0.531 µM); in assay [5], 0.2 µg/mL (≈ 0.531 µM); in assay [6], 12.5 µg/mL (≈ 33.2 µM). The MIC in [7] amounted to 0.39 µg/mL (≈ 1.04 µM); in assay [8] it was 0.78 µg/mL (≈ 2.07 µM); in assay [9], 3.13 µg/mL (≈ 8.32 µM); in [10], 0.1 µg/mL (≈ 0.266 µM); in assay [11], 0.1 µg/mL (≈ 0.266 µM); in assay [12], 0.78 µg/mL (≈ 2.07 µM). For the same compound, the MIC stood at 0.78 µg/mL (≈ 2.07 µM) in assay [13]; 0.39 µg/mL (≈ 1.04 µM) in assay [14]; 0.1 µg/mL (≈ 0.266 µM) with Escherichia coli NR 2630; 50 µg/mL (≈ 133 µM) in assay [15]; 12.5 µg/mL (≈ 33.2 µM) in assay [16]; 3.13 µg/mL (≈ 8.32 µM) in [17]. Moreover, the MIC in assay [18] worked out at 0.2 µg/mL (≈ 0.531 µM); in assay [19] it was 0.78 µg/mL (≈ 2.07 µM); in assay [20], 0.1 µg/mL (≈ 0.266 µM).

Consider `CN1COc2c(N3CCNC(=O)C3)c(F)cc3c(=O)c(C(=O)O)cn1c23` [Example 24, 9-fluoro-3-methyl-7-oxo-10-(3-oxo-1-piperazinyl)-2,3-dihydro-7H-pyrido[3,2,1-ij]-1,3,4-benzoxadiazine-6-carboxylic acid], for which the MIC is 50 µg/mL (≈ 138 µM) in assay [1]; 0.39 µg/mL (≈ 1.08 µM) in [2]; 6.25 µg/mL (≈ 17.3 µM) in assay [3]; 1.56 µg/mL (≈ 4.31 µM) in assay [4]; 0.78 µg/mL (≈ 2.15 µM) in assay [5]; 25 µg/mL (≈ 69 µM) in assay [6]. In addition, the MIC was 3.13 µg/mL (≈ 8.64 µM) in [7]; 6.25 µg/mL (≈ 17.3 µM) in [8]; 6.25 µg/mL (≈ 17.3 µM) in [9]; 1.56 µg/mL (≈ 4.31 µM) in [10]; 0.39 µg/mL (≈ 1.08 µM) in assay [11]; 3.13 µg/mL (≈ 8.64 µM) in assay [12]. Moreover, the MIC in assay [13] was 3.13 µg/mL (≈ 8.64 µM); in [14], 3.13 µg/mL (≈ 8.64 µM); in the assay on Escherichia coli NR 2630, 0.78 µg/mL (≈ 2.15 µM); in [15], 25 µg/mL (≈ 69 µM); in assay [16], 12.5 µg/mL (≈ 34.5 µM); in [17] it was 25 µg/mL (≈ 69 µM). Moreover, the MIC in [18] was found to be 0.78 µg/mL (≈ 2.15 µM); in assay [19], 1.56 µg/mL (≈ 4.31 µM); in [20], 1.56 µg/mL (≈ 4.31 µM).

`CN1COc2c(N3CCC(N)CC3)c(F)cc3c(=O)c(C(=O)O)cn1c23` [Example 33]: the MIC in [1] was 25 µg/mL (≈ 69 µM); in [2], 0.2 µg/mL (≈ 0.552 µM); in assay [3], 0.78 µg/mL (≈ 2.15 µM); in assay [4] it was 0.2 µg/mL (≈ 0.552 µM); in [5] it was 0.05 µg/mL (≈ 0.138 µM); in [6], 6.25 µg/mL (≈ 17.2 µM). Besides, the MIC stood at 0.78 µg/mL (≈ 2.15 µM) in [7]; 1.56 µg/mL (≈ 4.31 µM) in assay [8]; 0.78 µg/mL (≈ 2.15 µM) in [9]; 0.2 µg/mL (≈ 0.552 µM) in assay [10]; 0.05 µg/mL (≈ 0.138 µM) in assay [11]; 0.2 µg/mL (≈ 0.552 µM) in assay [12]. Moreover, the MIC in assay [13] amounted to 0.39 µg/mL (≈ 1.08 µM); in assay [14], 0.78 µg/mL (≈ 2.15 µM); in the assay on Escherichia coli NR 2630, 0.1 µg/mL (≈ 0.276 µM); in [15] it was 50 µg/mL (≈ 138 µM); in assay [16], 1.56 µg/mL (≈ 4.31 µM); in [17] it was 3.13 µg/mL (≈ 8.64 µM). The values for the MIC in assay [18], in assay [19] and in assay [20] were 0.1 µg/mL (≈ 0.276 µM), 0.2 µg/mL (≈ 0.552 µM) and 0.2 µg/mL (≈ 0.552 µM), respectively.

Turning to `CNC1CCN(c2c(F)cc3c(=O)c(C(=O)O)cn4c3c2OCN4C)CC1` [Example 34], the MIC was 25 µg/mL (≈ 66.4 µM) in [1]; 0.05 µg/mL (≈ 0.133 µM) in [2]; 0.78 µg/mL (≈ 2.07 µM) in assay [3]; 0.2 µg/mL (≈ 0.531 µM) in [4]; 0.1 µg/mL (≈ 0.266 µM) in assay [5]; 6.25 µg/mL (≈ 16.6 µM) in assay [6]. For the same compound, the MIC in assay [7] amounted to 0.78 µg/mL (≈ 2.07 µM); in [8], 1.56 µg/mL (≈ 4.14 µM); in assay [9], 0.78 µg/mL (≈ 2.07 µM); in [10], 0.2 µg/mL (≈ 0.531 µM); in assay [11] it was 0.05 µg/mL (≈ 0.133 µM); in assay [12], 0.2 µg/mL (≈ 0.531 µM). In addition, the MIC in assay [13] stood at 0.78 µg/mL (≈ 2.07 µM); in assay [14], 0.78 µg/mL (≈ 2.07 µM); with Escherichia coli NR 2630 it was 0.1 µg/mL (≈ 0.266 µM); in assay [15] it was 50 µg/mL (≈ 133 µM); in [16], 3.13 µg/mL (≈ 8.32 µM); in [17], 6.25 µg/mL (≈ 16.6 µM). For the same compound, the MIC in [18] was determined as 0.1 µg/mL (≈ 0.266 µM); in assay [19], 0.2 µg/mL (≈ 0.531 µM); in assay [20], 0.2 µg/mL (≈ 0.531 µM).
